US6380257B1, “Aromatic di-keto derivatives, processes for their production and their use as a pharmaceutical” (Aventis Pharma Deutschland GmbH, priority 1999, dated 2002)
Where two headings read alike, the source gives them in different places.

Key:
[1] = target: T1, glucose-6-phosphate translocase from rat liver microsomes (Rattus norvegicus, UniProt F7EWB7); test: Inhibition of glucose-6-phosphate translocase from rat liver microsomes; format: biochemical
T1 construct: glucose-6-phosphate translocase from rat liver microsomes; from tissue; host or cells: rat liver microsomes
T1 sequence (F7EWB7 1-429): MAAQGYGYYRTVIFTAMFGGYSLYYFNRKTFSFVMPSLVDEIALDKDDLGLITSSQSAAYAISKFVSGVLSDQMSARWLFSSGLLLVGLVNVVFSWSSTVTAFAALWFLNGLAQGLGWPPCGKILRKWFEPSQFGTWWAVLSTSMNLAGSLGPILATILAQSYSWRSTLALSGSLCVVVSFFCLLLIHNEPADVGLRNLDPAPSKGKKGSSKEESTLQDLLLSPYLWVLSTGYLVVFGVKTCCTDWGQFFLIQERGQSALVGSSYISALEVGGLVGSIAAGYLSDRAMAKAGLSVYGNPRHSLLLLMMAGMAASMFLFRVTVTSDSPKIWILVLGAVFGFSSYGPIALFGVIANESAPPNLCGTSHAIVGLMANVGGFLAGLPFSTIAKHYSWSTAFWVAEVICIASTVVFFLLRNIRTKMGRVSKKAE

[2] = target: T2, microsomal glucose-6-phosphatase (Rattus norvegicus, UniProt P43428); test: Inhibition of microsomal glucose-6-phosphatase; format: biochemical
T2 construct: from tissue; host or cells: liver microsomes (rat inferred)
T2 sequence (P43428 1-357): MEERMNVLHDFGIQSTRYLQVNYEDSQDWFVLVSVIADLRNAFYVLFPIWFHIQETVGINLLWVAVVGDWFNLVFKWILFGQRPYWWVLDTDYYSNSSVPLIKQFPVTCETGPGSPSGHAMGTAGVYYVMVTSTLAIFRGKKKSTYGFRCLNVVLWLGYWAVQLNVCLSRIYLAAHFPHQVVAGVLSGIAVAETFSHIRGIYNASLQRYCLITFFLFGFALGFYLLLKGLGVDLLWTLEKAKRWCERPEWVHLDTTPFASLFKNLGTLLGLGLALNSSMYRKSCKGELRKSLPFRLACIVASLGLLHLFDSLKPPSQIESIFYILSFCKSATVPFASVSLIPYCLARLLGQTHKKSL

[3] = Stability of mumbaistatin in solution; format: physicochemical

Q: With `COC(=O)CC1CCC2(O1)OC1(OC(=O)c3c(OC)cc4c(c31)C(=O)c1c(O)cccc1C4=O)c1c(OC)cccc12` (stereo not shown) [XIXB] as the molecule, how does the IC50 ([1]; read-out: Inhibition of glucose-6-phosphate translocase: IC50) read?
A: Its IC50 is over 100000 nM.

Q: With `NC(=O)c1c(O)cc2c(c1C(=O)c1c(O)cccc1C1(O)CCC(CC(=O)O)O1)C(=O)c1c(O)cccc1C2=O` (stereo not shown) [XXIIIA] as the molecule, how does the IC50 ([1]; read-out: inhibits glucose-6-phosphate translocase with an IC50) read?
A: Its IC50 is about 1000 nM.

Q: For mumbaistatin, which IC50 ([1]; rat liver microsomes, listed as mumbaistain, read-out: Inhibition of glucose-6-phosphate translocase, IC50) is on record?
A: Its IC50 is about 5 nM.

Q: What about the IC50 ([1]; rat liver microsomes, read-out: Inhibition of glucose-6-phosphate translocase, IC50) of the same molecule?
A: The IC50 was 5 nM.

Q: What about the “Inhibition of microsomal glucose-6-phosphatase in 10 μM solution” value [2] of the same molecule?
A: The value was “activity was not demonstrable”.

Q: What about the “stability in solution at acid pH” value ([3]; acid pH, conversion e.g. to compound of formula XIXD) of the same molecule?
A: The value was “rapidly undergoes a complex conversion”.

Q: What about the stability in solution ([3]; pH of around 6 to 9) of the same molecule?
A: The stability in solution was “limited stability”.
